Experimental data from ChEMBL document CHEMBL1201862, “PubChem BioAssay data set” (2004).
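1) Cells in 96-well plates. 2) Compound, 48 h, 5 concentrations. 3) Linear interpolation between surrounding doses. 4) Unreached endpoint = highest concentration. At the GI50, growth is halved.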 Activity calls are given as the source filed them. Rule as the data show it: active = GI50 up to about 1.1 µM and inactive = higher.

Columns and labels:
Test in all cases: inhibition of tumour cell growth, NCI panel, 48 h
NCI-H522 = tested on: NCI-H522
SF-268 = tested on: SF-268
HCT-116 = tested on: HCT-116
SK-MEL-28 = tested on: SK-MEL-28
MOLT-4 = tested on: MOLT-4
EKVX = tested on: EKVX
IGROV-1 = tested on: IGROV-1
M14 = tested on: M14
HL-60 = tested on: HL-60
U-251 = tested on: U-251
KM12 = tested on: KM12
CAKI-1 = tested on: CAKI-1
DMS-273 = tested on: DMS-273
OVCAR-5 = tested on: OVCAR-5
Malme-3M = tested on: Malme-3M
T47D = tested on: T47D
DU-145 = tested on: DU-145
MDA-MB-435 = tested on: MDA-MB-435
MCF7 = tested on: MCF7
BT-549 = tested on: BT-549

Row | Structure (SMILES) | GI50 (NCI-H522) | GI50 (SF-268) | GI50 (HCT-116) | GI50 (SK-MEL-28) | GI50 (MOLT-4) | GI50 (EKVX) | GI50 (IGROV-1) | GI50 (M14) | GI50 (HL-60) | GI50 (U-251) | GI50 (KM12) | GI50 (CAKI-1) | GI50 (DMS-273) | GI50 (OVCAR-5) | GI50 (Malme-3M) | GI50 (T47D) | GI50 (DU-145) | GI50 (MDA-MB-435) | GI50 (MCF7) | GI50 (BT-549)
1 | COC(=O)[C@H](Cc1ccccc1)NC(=O)/C(=C/C(C)C)NC(=O)[C@H](CCSC)NC=O | > 100 µM (inactive) | > 100 µM (inactive) | > 100 µM (inactive) | > 100 µM (inactive) | > 100 µM (inactive) | > 100 µM (inactive) | > 100 µM (inactive) | > 100 µM (inactive) | > 100 µM (inactive) | > 100 µM (inactive) | > 100 µM (inactive) | > 100 µM (inactive) | > 100 µM (inactive) |  |  |  |  |  |  | 
2 | CN1C/C(=C\c2ccc(C(=O)O)cc2)C(=O)/C(=C/c2ccc(C(=O)O)cc2)C1 |  | > 100 µM (inactive) | > 100 µM (inactive) | > 100 µM (inactive) | > 100 µM (inactive) | > 100 µM (inactive) | > 100 µM (inactive) | > 100 µM (inactive) | > 100 µM (inactive) | > 100 µM (inactive) | > 100 µM (inactive) | > 100 µM (inactive) | > 100 µM (inactive) | > 100 µM (inactive) | > 100 µM (inactive) |  |  |  |  | 
3 | O=C(O)C(Cl)(Cl)Cl |  | > 100 µM (inactive) | > 100 µM (inactive) | > 100 µM (inactive) | > 100 µM (inactive) | > 100 µM (inactive) | > 100 µM (inactive) | > 100 µM (inactive) | > 100 µM (inactive) | > 100 µM (inactive) | > 100 µM (inactive) | > 100 µM (inactive) | > 100 µM (inactive) | > 100 µM (inactive) | > 100 µM (inactive) |  |  |  |  | 
4 | O=c1cc2ccccc2nn1Cc1ccccc1Cl |  | > 100 µM (inactive) | > 100 µM (inactive) | > 100 µM (inactive) |  | > 100 µM (inactive) | > 100 µM (inactive) | > 100 µM (inactive) |  | > 100 µM (inactive) | > 100 µM (inactive) | > 100 µM (inactive) | > 100 µM (inactive) | > 100 µM (inactive) | > 100 µM (inactive) |  |  |  |  | 
5 | S=C(N/N=C/c1ccccc1)NC12CC3CC(CC(C3)C1)C2 | 29.5 µM (inactive) | 31.9 µM (inactive) | 29.5 µM (inactive) | 59.3 µM (inactive) | 12.3 µM (inactive) | 71.4 µM (inactive) | > 100 µM (inactive) | 46.6 µM (inactive) | 31.2 µM (inactive) | 53.8 µM (inactive) | 36.2 µM (inactive) | 49.3 µM (inactive) | 22.6 µM (inactive) | 63.7 µM (inactive) |  |  |  |  |  | 
6 | CC(=O)OCCOCNC(=S)N/N=C(\C)c1cnc2ccccc2n1 | 21.9 µM (inactive) | 10.4 µM (inactive) | 25.4 µM (inactive) | 43.6 µM (inactive) | 28.6 µM (inactive) | 8.53 µM (inactive) | 42 µM (inactive) | 36 µM (inactive) | 15.9 µM (inactive) | 29.1 µM (inactive) | 46.5 µM (inactive) |  | 31.9 µM (inactive) | 7.91 µM (inactive) | 40.6 µM (inactive) |  |  |  |  | 
7 | O=C1c2ccccc2CCCCCCCCCCC12OCCCO2 | 24.5 µM (inactive) | 11.8 µM (inactive) | 16 µM (inactive) | 55.8 µM (inactive) | 17.7 µM (inactive) |  | 41.4 µM (inactive) | 51.3 µM (inactive) | 16 µM (inactive) | 24.4 µM (inactive) | 27.6 µM (inactive) | 25.5 µM (inactive) | 70.5 µM (inactive) | 26.7 µM (inactive) | 30.9 µM (inactive) |  |  |  |  | 
8 | O=c1cc[nH]c2c1ccc1ncccc12 | > 100 µM (inactive) | > 100 µM (inactive) | > 100 µM (inactive) | > 100 µM (inactive) | > 100 µM (inactive) | > 100 µM (inactive) | > 100 µM (inactive) | > 100 µM (inactive) | > 100 µM (inactive) | > 100 µM (inactive) | > 100 µM (inactive) |  | > 100 µM (inactive) | > 100 µM (inactive) | > 100 µM (inactive) |  |  |  |  | 
9 | CCOC(=O)C1=C(NC)OCC1=O | > 100 µM (inactive) | > 100 µM (inactive) | > 100 µM (inactive) | > 100 µM (inactive) |  | > 100 µM (inactive) | > 100 µM (inactive) | > 100 µM (inactive) | > 100 µM (inactive) | > 100 µM (inactive) | > 100 µM (inactive) | > 100 µM (inactive) | > 100 µM (inactive) | > 100 µM (inactive) | > 100 µM (inactive) |  |  |  |  | 
10 | CC(C)Cc1cccc(C(C)C)c1NC(=O)CCC(=O)N/N=C1\C(=N/NC(=O)CCC(=O)Nc2c(C(C)C)cccc2C(C)C)C(c2ccc3c(c2)OCO3)Oc2ccccc21 (centres undefined) | 19.5 µM (inactive) | 67.8 µM (inactive) | 61.2 µM (inactive) | > 100 µM (inactive) | 57.3 µM (inactive) | 9.64 µM (inactive) | 29.5 µM (inactive) | > 100 µM (inactive) | 34.2 µM (inactive) | 35 µM (inactive) | > 100 µM (inactive) | 53.2 µM (inactive) | 76.9 µM (inactive) | > 100 µM (inactive) |  |  |  |  |  | 
11 | CCOc1ccc(C2=C(Cl)c3cc(OC)c(OC)cc3C2Cl)cc1 (centres undefined) | 17.2 µM (inactive) | 59.6 µM (inactive) |  | 87.5 µM (inactive) | 19.5 µM (inactive) | 66.7 µM (inactive) | 72.4 µM (inactive) | 35.8 µM (inactive) | 13.4 µM (inactive) | 18.2 µM (inactive) |  | 46.1 µM (inactive) | 37.9 µM (inactive) |  | 33.8 µM (inactive) |  |  |  |  | 
12 | COC1(Cc2ccccc2)C(=O)c2ccccc2N1C(C)=O (centres undefined) |  |  | > 100 µM (inactive) | > 100 µM (inactive) | > 100 µM (inactive) | > 100 µM (inactive) | > 100 µM (inactive) | > 100 µM (inactive) | > 100 µM (inactive) | > 100 µM (inactive) | > 100 µM (inactive) | > 100 µM (inactive) | > 100 µM (inactive) |  |  |  |  |  |  | 
13 | Cc1ccc(C(=O)/C=C2/Nc3ccccc3NC2=O)c(C)c1 | 7.73 µM (inactive) | 6.95 µM (inactive) | 11.8 µM (inactive) | 14.7 µM (inactive) | 45.5 µM (inactive) | 8.77 µM (inactive) | 12.7 µM (inactive) | 49.2 µM (inactive) | 23.4 µM (inactive) | 11.2 µM (inactive) | 20.8 µM (inactive) | 3.95 µM (inactive) |  | 44.7 µM (inactive) | 54.6 µM (inactive) | 22.1 µM (inactive) | 30.1 µM (inactive) | 30.8 µM (inactive) | 13.3 µM (inactive) | 35.4 µM (inactive)
14 | CCOC(=O)C1C(=O)CC(O)(c2ccccc2)C(C(=O)OCC)C1c1ccc(OC)cc1 (centres undefined) | 5.69 µM (inactive) | 30.1 µM (inactive) | 4.94 µM (inactive) | 28.8 µM (inactive) | 17.5 µM (inactive) | > 50.7 µM (inactive) | 20 µM (inactive) | 10.4 µM (inactive) | 10.5 µM (inactive) | 16 µM (inactive) | 6.31 µM (inactive) | 44.8 µM (inactive) |  | 50.6 µM (inactive) | 26.2 µM (inactive) | 42.2 µM (inactive) | 47.3 µM (inactive) | 3.24 µM (inactive) | 27 µM (inactive) | 34.7 µM (inactive)
15 | COc1ccc(NC(=S)N/N=C/c2cccc(C)n2)cc1 | 0.203 µM (active) | 3.94 µM (inactive) | 3.33 µM (inactive) | 5.68 µM (inactive) | 3.07 µM (inactive) | 5.11 µM (inactive) | 2.37 µM (inactive) | 2.4 µM (inactive) | 1.84 µM (inactive) | 4.09 µM (inactive) | 3.98 µM (inactive) | 4.25 µM (inactive) |  | 31.5 µM (inactive) | 3.13 µM (inactive) | 3.62 µM (inactive) | 5.56 µM (inactive) | 1.04 µM (active) | 3.59 µM (inactive) | 10.7 µM (inactive)
16 | CCCCCCCSCC1OC(n2cnc3c(N)ncnc32)C(O)C1O (centres undefined) |  | 34.2 µM (inactive) | 3.59 µM (inactive) | > 100 µM (inactive) | 19.1 µM (inactive) | 20.5 µM (inactive) | 14.6 µM (inactive) | 22.5 µM (inactive) | 3.01 µM (inactive) | > 100 µM (inactive) | 8.22 µM (inactive) | 5.08 µM (inactive) | 21.3 µM (inactive) | > 100 µM (inactive) | 49.3 µM (inactive) |  |  |  |  | 
17 | CC(C)(C)OC(=O)CN1CCN(CC(=O)N2CCN(C(=O)OCc3ccccc3)CC2)CCN(CC(=O)OC(C)(C)C)CCN(CC(=O)N2CCN(C(=O)OCc3ccccc3)CC2)CC1 | 0.785 µM (active) | 2.48 µM (inactive) | 3.11 µM (inactive) | 4.93 µM (inactive) | 1.98 µM (inactive) | 10.5 µM (inactive) | 0.853 µM (active) | 3.21 µM (inactive) | 0.225 µM (active) | 1.7 µM (inactive) | 1.42 µM (inactive) | 10.1 µM (inactive) |  | 13.1 µM (inactive) | 2.33 µM (inactive) | 3.12 µM (inactive) | 6.95 µM (inactive) | 2.13 µM (inactive) | 2.35 µM (inactive) | 3.94 µM (inactive)
18 | CC(=O)OC(Cc1c(O)c2c(C)cccc2oc1=O)C(C)(C)O (centres undefined) | > 100 µM (inactive) | 91.4 µM (inactive) | 53.6 µM (inactive) | 88.1 µM (inactive) | 46.8 µM (inactive) | > 100 µM (inactive) | > 100 µM (inactive) | > 100 µM (inactive) | 72.6 µM (inactive) | > 100 µM (inactive) | > 100 µM (inactive) | > 100 µM (inactive) |  | > 100 µM (inactive) | > 100 µM (inactive) | 60.4 µM (inactive) | > 100 µM (inactive) | > 100 µM (inactive) | > 100 µM (inactive) | > 100 µM (inactive)
